Like-named read-outs stand apart in the source and are kept apart here.
Columns and labels:
tomato seedlings = experiment: Tomato seedlings in pots sprayed 3 times: height, fresh and dry weight, chlorophyll (Example 3); assay type: in vivo; conditions: 80 mg/L, benzothiadiazole salt 30 mg/L; for Average plant height, before second treatment / Average plant height, before third treatment / Average plant height, initial height, before first treatment / Chlorophyll content (SPAD), a day after treatment #1 / Chlorophyll content (SPAD), a day after treatment #2 / Chlorophyll content (SPAD), a day after treatment #3 / Plant height increase / Chlorophyll content (SPAD), Treatment #1 / Chlorophyll content (SPAD), Treatment #2 / Chlorophyll content (SPAD), Treatment #3: chitosan lactate 50 mg/l; for Average dry mass / Average fresh mass: above-ground part; for Chlorophyll content (SPAD), Treatment #1: before treatment #1; for Chlorophyll content (SPAD), Treatment #2: before treatment #2; for Chlorophyll content (SPAD), Treatment #3: before treatment #3
Description: Tomato seedlings (12 according to development scale BBCH) were planted into pots with peat substrate (P9 pots having 0.5 l). Plant pots were placed in greenhouse and cultivated for a 1 and a half month. Plants were sprayed with tested substance 3 times, in 10-day interval. […] 2-methoxyethyl(trimethyl)-ammonium benzo[1,2,3]thiadiazole-7-carboxylate; 3. […] 2-methoxyethyl(trimethyl)ammonium 3-chlorosalicylate; 7. 2-ethoxyethyl(trimethyl)ammonium 3-chlorosalicylate; 8. ethyl(trimethyl)ammonium 3-chlorosalicylate at a concentration od 80 mg/l. Plants were sprayed with tested substances three times at 10-day intervals. Plants in peat substrate treated with water only were the control. During the course of the experiment, the height of the plants was measured, and at the end the fresh and dry weight of the aboveground part was evaluated. Moreover chlorophyll content was measured. The experiment was conducted in 4 repetitions with 5 plants in each (a total of 20 plants per each variant of treatment).

[1] = system: apple trees (M9 rootstocks); conditions: 4 sprays at 14-day intervals; 3-chlorosalicylate 100 mg/L, benzothiadiazole salt 25 mg/L
Description: Flowers were counted during the experiment, and the number of shoots and leaves in the fall.

poinsettia = conditions: treated three times, 50 mg/L; not watered for 7 days; control plants wilted
Description: The plants were then subjected to drought stress—they were not watered for 7 days.

[2] = system: tobacco mosaic virus (TMV); experiment: Direct effect on TMV infectivity: virus incubated with substance, then Xanthi tobacco leaves infected (Example 21); assay type: in vivo; conditions: TMV about 3 μg/ml mixed 1:1 with substance 80 mg/L, 30 min; 5 days after infection; control 100
Method: Sodium 3-chlorosalicylate; 5. Potassium 3-chlorosalicylate; 6. Calcium 3-chlorosalicylate; 7. Magnesium 3-chlorosalicylate (concentration 80 mg/L), in a 1:1 ratio and incubated for 30 min at room temperature. The control variant consisted of TMV incubated in water. All virus suspensions were used to mechanically infect Xanthi tobacco leaves, whose reaction to infection is manifested in easily quantifiable local necrotic spots (hypersensitivity, local infection).
After 5 days, the area of leaf covered by necrotic spots compared to total leaf area was calculated for plants of all variants of treatment.

[3] = system: Pseudomonas syringae pv. Tomato; experiment: Direct effect on bacterial infectivity (Example 22); assay type: in vivo; conditions: tobacco plant, 5 days after infection with solution of bacteria and test substance; control 100
Method: Proceeding as in example 21, Pseudomonas syringae pv. Tomato bacteria were tested and incubated in bacterial medium.

TMV [4] = experiment: Protection of tobacco against TMV, single spray, comparison with BION (Example 26); assay type: in vivo, Nicotiana tabacum cv. Xanthi; conditions: sprayed once, infected a week later
Method: Tobacco plants (Nicotiana tabacum) cv. Xanthi at the stage of three developed leaves were sprayed once with solutions of substance 1-5 or BION™ at concentrations of 10, 40, 80 mg/L. A week later, they were mechanically infected with TMV by rubbing the leaves with a square soaked in a suspension of purified virus, with a concentration of about 2 μg/ml. The level of protection against the effects of biotic stress was evaluated by comparing the number of necrotic spots caused by TMV on the leaves of plants treated with substances 1-5 and BION™ and control plants.
A reduction in the number of necrotic spots indicates protection from the effects of the biotic agent on the plant.

TMV [5] = experiment: Protection of tobacco against TMV infected 3 weeks after the last treatment (Example 27); assay type: in vivo; conditions: infected with TMV 3 weeks after the last treatment
Method: They proceeded as in Example 24, using substances 1-4 at concentrations of 10, 40 and 80 mg/L for treatment, with treated and control plants divided into 3 batches and their leaves infected with the virus 1, 2 and 3 weeks after the last treatment, respectively. […] A similar effect occurred with spraying.

Brome Mosaic Virus (BMV) = experiment: Protection of barley against Brome Mosaic Virus infection by watering (Examples 28 and 29); assay type: in vivo; conditions: 2 weeks after infection
[6] = system: Pseudomonas syringae pv. Tomato (Pst); conditions: 2 weeks after infection
Method: Tobacco plants at the stage of 3 developed leaves were watered twice, at a weekly interval, with a solution of test substances 1-11 at concentrations of 10, 40, 80 mg/L. The control was tobacco plants watered with water only. One week after the second treatment, a suspension of Pst bacteria at a concentration of 10^5 was spotted into the leaves using an insulin syringe (without a needle). The suspension was prepared from a two-day culture of Pst on solid medium. Protection against biotic stress was evaluated by the proliferation of bacteria in the leaves at the insertion site and the formation of a necrotic spot, compared to the control.
We proceeded as in Example 30, with the effectiveness of protection against biotic stress tested against bacterial cell concentrations raised to about 10^6.

[7] = system: Pseudomonas syringae pv. Tomato (Pst); experiment: Protection of tomato against Pseudomonas syringae pv. Tomato by spraying (Example 33); assay type: in vivo, Lycopersicon Esculentum Mill tomato; conditions: 80 mg/L, sprayed twice; 2 weeks after infection
Method: Tomato plants, at the stage of the first pair of developed true leaves, were watered twice with a solution of substance 1-6 at a concentration of 80 mg/L, at a weekly interval. The control was tomato plants watered only with water. One week after the second treatment, a suspension of Pst bacteria at a concentration of 10^5 was spot-injected into the leaves using an insulin syringe (without a needle). The suspension was prepared from a two-day culture of Pst on solid medium. Protection against biotic stress was evaluated by the proliferation of bacteria in the leaves at the insertion site and the formation of a necrotic spot, compared to the control.
The procedure was followed as in Example 32, with the plants sprayed.

powdery mildew fungus = experiment: Protection of tomato against powdery mildew by spraying (Example 35); assay type: in vivo, Lycopersicon Esculentum Mill tomato; conditions: 40 mg/l, sprayed twice; 2 weeks after pathogen inoculation
Method: […] The control was tomato plants watered only with water. […] The suspension was prepared from culture on solid medium. Protection against biotic stress was evaluated by comparing the area of leaves affected by infection.
Proceeded in the way as described in Example 34, with the difference that plants were sprayed and not watered.

Row | SMILES | Average plant height, before second treatment (tomato seedlings) | Average plant height, before third treatment (tomato seedlings) | Average plant height, initial height, before first treatment (tomato seedlings) | Chlorophyll content (SPAD), a day after treatment #1 (tomato seedlings) | Chlorophyll content (SPAD), a day after treatment #2 (tomato seedlings) | Chlorophyll content (SPAD), a day after treatment #3 (tomato seedlings) | Plant height increase (tomato seedlings) | Average dry mass (tomato seedlings) | Average fresh mass (tomato seedlings) | Chlorophyll content (SPAD), Treatment #1 (tomato seedlings) | Chlorophyll content (SPAD), Treatment #2 (tomato seedlings) | Chlorophyll content (SPAD), Treatment #3 (tomato seedlings) | Average number of flowers per plant [1] | Average number of leaves per plant [1] | Average number of shoots per plant [1] | other results
1 | C[N+](C)(C)CCO.O=C([O-])c1cccc(Cl)c1O [choline 3-chlorosalicylate] | 143.2 b mm | 345.1 b mm | 59.3 a mm | 74.6 b | 76.2 b | 79.3 b | 285.8 b mm | 83.1 b g | 327.7 b g | 48.5 a | 48.3 a | 49.5 a | 30.3 b | 45.3 b | 6.7 b | drought effects on the plants (poinsettia): no drought effects were observed; % of necrotic spots [2]: 98%; % of necrotic spots [3]: 99%; % reduction in necrotic spots compared to control (TMV [4]; 10 mg/L): 58%; % reduction in necrotic spots compared to control (TMV [4]; 40 mg/L): 92%; % reduction in necrotic spots compared to control (TMV [4]; 80 mg/L): 98%; % reduction in necrotic spots compared to control (TMV [5]; 10 mg/L): 58%; % reduction in necrotic spots compared to control (TMV [5]; 40 mg/L): 92%; % reduction in necrotic spots compared to control (TMV [5]; 80 mg/L): 98%; % reduction in necrotic spots compared to control (Brome Mosaic Virus (BMV); 10 mg/L, watered): 69%; % reduction in necrotic spots compared to control (Brome Mosaic Virus (BMV); 80 mg/L, watered twice): 100%; % reduction in necrotic spots compared to control (Brome Mosaic Virus (BMV); 80 mg/L, watered twice, listed as 2-hydroxyethyl(trimethyl)ammonium 3-chlorosalicylate): 98%; % reduction in necrotic spots compared to control ([6]; 10 mg/L, watered twice, Pst 10^5): 65%; % reduction in necrotic spots compared to control ([6]; 40 mg/L, watered twice, Pst 10^5): 72%; % reduction in necrotic spots compared to control ([6]; 80 mg/L, bacterial cell concentration raised to about 10^6): 85%; % reduction in necrotic spots compared to control ([6]; 80 mg/L, watered twice, Pst 10^5): 89%; % reduction in necrotic spots compared to control [7]: 93%; Reduction in necrotic spots (white patches) compared to control (powdery mildew fungus): 72%
2 | C[N+](C)(C)CCO.O=C([O-])c1cccc2nnsc12 | 146.7 b mm | 337.1 b mm | 60.5 a mm | 76.1 b | 81.3 c | 78.2 b | 276.6 b mm | 87.5 b g | 333.5 b g | 49.6 a | 47.5 a | 50.1 a | 31.1 b | 47.1 b | 6.5 b | –
